Data on five molecules can be found in patent publication US20250382344A1, “Soluble GLP1/GIP/NPY2 Receptor Triple Agonists” (Boehringer Ingelheim International GmH, priority 2024, published 2025).

Where two headings read alike, the source gives them in different places.

One data set addresses T1, hGLP1R (Homo sapiens, UniProt P43220).
T1 construct: expressed in transfected cells; host or cells: HEK-293 CRE-luciferase reporter cells
The data set is described as follows: hGLP1R CreLuc assay in 0.5% and 100% plasma (HEK-293 CRE-luciferase reporter cells). Format: cell-based. Particulars: HEK-293 reporter cells. For orientation: In a reporter assay the amount or activity of a reporter protein is the signal.

The next data set addresses T2, hGIPR (Homo sapiens, UniProt P48546).
T2 construct: expressed in transfected cells; host or cells: CHO CRE-luciferase reporter cells
T2 sequence (P48546 22-466): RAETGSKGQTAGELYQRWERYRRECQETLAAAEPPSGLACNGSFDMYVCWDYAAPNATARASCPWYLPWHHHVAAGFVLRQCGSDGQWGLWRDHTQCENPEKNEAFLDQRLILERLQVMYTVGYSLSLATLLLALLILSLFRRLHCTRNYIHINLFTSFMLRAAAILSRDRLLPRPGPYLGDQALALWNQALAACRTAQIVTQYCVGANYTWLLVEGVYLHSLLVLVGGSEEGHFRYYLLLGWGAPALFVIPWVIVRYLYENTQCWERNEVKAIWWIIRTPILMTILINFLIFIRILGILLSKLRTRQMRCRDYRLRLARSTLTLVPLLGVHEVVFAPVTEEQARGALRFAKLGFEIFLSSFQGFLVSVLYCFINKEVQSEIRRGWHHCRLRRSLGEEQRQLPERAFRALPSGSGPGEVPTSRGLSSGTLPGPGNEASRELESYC
The data set can be described thus: hGIPR CreLuc assay in 0.5% and 100% plasma (CHO CRE-luciferase reporter cells). The class given is cell-based.

Data set [1] can be described thus: Solubility in 0.1 M phosphate buffer at pH 7. Format: physicochemical. Particulars: 0.1 M phosphate buffer at pH 7, 10 mg/mL final peptide concentration, shaking 2 hours at room temperature, peptides as TFA-salts; measured sample pH 6.5-7.0.
The mark [2] stands for this setting: 0.5% human plasma, read-out: hGLP1R 0.5% hP.
The mark [3] stands for this setting: 100% human plasma, read-out: hGLP1R 100% hP.
Setting [4] is: 0.5% human plasma, read-out: hGIPR 0.5% hP.
[5] abbreviates: 100% human plasma, read-out: hGIPR 100% hP.

T1 sequence (P43220 24-463): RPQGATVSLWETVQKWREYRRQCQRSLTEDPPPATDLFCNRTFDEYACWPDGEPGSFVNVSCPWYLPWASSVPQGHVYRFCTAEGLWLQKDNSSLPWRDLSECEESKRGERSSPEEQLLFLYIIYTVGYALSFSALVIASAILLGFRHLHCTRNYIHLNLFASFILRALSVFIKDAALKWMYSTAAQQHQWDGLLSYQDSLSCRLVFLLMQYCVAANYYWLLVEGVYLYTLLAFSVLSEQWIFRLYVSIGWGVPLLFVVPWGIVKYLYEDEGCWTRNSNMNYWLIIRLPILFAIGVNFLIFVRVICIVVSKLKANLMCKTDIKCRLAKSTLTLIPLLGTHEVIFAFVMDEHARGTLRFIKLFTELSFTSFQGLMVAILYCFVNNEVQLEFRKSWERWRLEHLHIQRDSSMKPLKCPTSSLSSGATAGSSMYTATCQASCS

In general, solubility refers to how much of the substance goes into solution per volume. Regarding `CC[C@H](C)[C@H](NC(=O)[C@H](CCCCN)NC(=O)[C@H](CC(=O)O)NC(=O)[C@H](CC(C)C)NC(=O)C(C)(C)NC(=O)[C@@H](NC(=O)[C@H](CO)NC(=O)[C@H](Cc1ccc(O)cc1)NC(=O)[C@H](CC(=O)O)NC(=O)[C@H](CO)NC(=O)[C@@H](NC(=O)[C@H](Cc1ccccc1)NC(=O)[C@@H](NC(=O)CNC(=O)[C@H](CCC(=O)O)NC(=O)C(C)(C)NC(=O)[C@@H](N)Cc1ccc(O)cc1)[C@@H](C)O)[C@@H](C)O)[C@@H](C)CC)C(=O)N[C@@H](C)C(=O)N[C@@H](CCC(N)=O)C(=O)NC(C)(C)C(=O)N[C@@H](C)C(=O)N[C@@H](Cc1ccccc1)C(=O)N[C@H](C(=O)N[C@@H](CCCNC(=N)N)C(=O)N[C@@H](Cc1c[nH]cn1)C(=O)N[C@@H](CC(C)C)C(=O)N[C@H](C(=O)N[C@@H](CC(N)=O)C(=O)N[C@@H](CCCCNC(=O)[C@@H](N)CCCCNC(=O)CC[C@H](NC(=O)CC[C@H](NC(=O)CC[C@H](NC(=O)CC[C@H](NC(=O)CC[C@H](NC(=O)CC[C@H](NC(=O)CCCCCCCCCCCCCCCCC(=O)O)C(=O)O)C(=O)O)C(=O)O)C(=O)O)C(=O)O)C(=O)O)C(=O)NC(C)(C)C(=O)N[C@H](C(=O)N[C@@H](CCCNC(=N)N)C(=O)N[C@@H](CCC(N)=O)C(=O)N[C@@H](CCCNC(=N)N)C(=O)N[C@@H](Cc1ccc(O)cc1)C(N)=O)[C@@H](C)O)[C@@H](C)CC)C(C)C` [Compound 33, Y-Aib-E-G-T-F-T-S-D-Y-S-I-Aib-L-D-K-I-A-Q-Aib-A-F-V-R-H-L-I-N-K(1,3)-Aib-T-R-Q-R-Y-NH2.C18DA-gGlu-gGlu-gGlu-gGlu-gGlu-gGlu-eLys(1,2)], the EC50 was determined as 100 pM at hGLP1R (setting [2]), 1000 pM at hGLP1R (setting [3]) and 700 pM at hGIPR (setting [4]). Moreover, in data set [1], the solubility at 2 h is 8900 µg/mL.
Regarding `CC[C@H](C)[C@H](NC(=O)[C@H](CC(C)C)NC(=O)[C@H](Cc1c[nH]cn1)NC(=O)[C@H](CCCNC(=N)N)NC(=O)[C@@H](NC(=O)[C@H](Cc1ccccc1)NC(=O)[C@H](C)NC(=O)C(C)(C)NC(=O)[C@H](CCC(N)=O)NC(=O)[C@H](C)NC(=O)[C@H](CCC(N)=O)NC(=O)[C@H](CCCCN)NC(=O)[C@H](CCC(=O)O)NC(=O)[C@H](CC(C)C)NC(=O)C(C)(C)NC(=O)[C@@H](NC(=O)[C@H](CO)NC(=O)[C@H](Cc1ccc(O)cc1)NC(=O)[C@H](CC(=O)O)NC(=O)[C@H](CO)NC(=O)[C@@H](NC(=O)[C@H](Cc1ccccc1)NC(=O)[C@@H](NC(=O)CNC(=O)[C@H](CCC(=O)O)NC(=O)C(C)(C)NC(=O)[C@@H](N)Cc1ccc(O)cc1)[C@@H](C)O)[C@@H](C)O)[C@@H](C)CC)C(C)C)C(=O)N[C@@H](CC(N)=O)C(=O)N[C@@H](CCCCNC(=O)CC[C@H](NC(=O)CC[C@H](NC(=O)[C@@H](N)CCCCNC(=O)CC[C@H](NC(=O)CC[C@H](NC(=O)CC[C@H](NC(=O)CC[C@H](NC(=O)CCCCCCCCCCCCCCCCC(=O)O)C(=O)O)C(=O)O)C(=O)O)C(=O)O)C(=O)O)C(=O)O)C(=O)NC(C)(C)C(=O)N[C@H](C(=O)N[C@@H](CCCNC(=N)N)C(=O)N[C@@H](CCC(N)=O)C(=O)N[C@@H](CCCNC(=N)N)C(=O)N[C@@H](Cc1ccc(O)cc1)C(N)=O)[C@@H](C)O` [Compound 34, Y-Aib-E-G-T-F-T-S-D-Y-S-I-Aib-L-E-K-Q-A-Q-Aib-A-F-V-R-H-L-I-N-K(1,3)-Aib-T-R-Q-R-Y-NH2.C18DA-gGlu-gGlu-gGlu-gGlu-eLys-gGlu-gGlu(1,2)], the EC50 was found to be 300 pM at hGLP1R (setting [2]) and 200 pM at hGIPR (setting [4]). Further, in data set [1], the solubility at 2 h was determined as 10600 µg/mL.
On to `CC[C@H](C)[C@H](NC(=O)[C@H](CC(C)C)NC(=O)[C@H](Cc1c[nH]cn1)NC(=O)[C@H](CCCNC(=N)N)NC(=O)[C@@H](NC(=O)[C@H](Cc1ccccc1)NC(=O)[C@H](C)NC(=O)C(C)(C)NC(=O)[C@H](CCC(N)=O)NC(=O)[C@H](C)NC(=O)[C@H](CCC(N)=O)NC(=O)[C@H](CCCCN)NC(=O)[C@H](CCC(=O)O)NC(=O)[C@H](CC(C)C)NC(=O)C(C)(C)NC(=O)[C@@H](NC(=O)[C@H](CO)NC(=O)[C@H](Cc1ccc(O)cc1)NC(=O)[C@H](CC(=O)O)NC(=O)[C@H](CO)NC(=O)[C@@H](NC(=O)[C@H](Cc1ccccc1)NC(=O)[C@@H](NC(=O)CNC(=O)[C@H](CCC(=O)O)NC(=O)C(C)(C)NC(=O)[C@@H](N)Cc1ccc(O)cc1)[C@@H](C)O)[C@@H](C)O)[C@@H](C)CC)C(C)C)C(=O)N[C@@H](CC(N)=O)C(=O)N[C@@H](CCCCNC(=O)CC[C@H](NC(=O)CC[C@H](NC(=O)CC[C@H](NC(=O)CC[C@H](NC(=O)CC[C@H](NC(=O)CCCCCCCCCCCCCCCCC(=O)O)C(=O)O)C(=O)O)C(=O)O)C(=O)O)C(=O)O)C(=O)N[C@H](C(=O)N[C@H](C(=O)N[C@@H](CCCNC(=N)N)C(=O)N[C@@H](CCC(N)=O)C(=O)N[C@@H](CCCNC(=N)N)C(=O)N[C@@H](Cc1ccc(O)cc1)C(N)=O)[C@@H](C)O)[C@@H](C)CC` [Compound 41, Y-Aib-E-G-T-F-T-S-D-Y-S-I-Aib-L-E-K-Q-A-Q-Aib-A-F-V-R-H-L-I-N-K(1,3)-I-T-R-Q-R-Y-NH2.C18DA-gGlu-gGlu-gGlu-gGlu-gGlu(1,2)], for which the EC50 at hGLP1R (setting [2]) came to 900 pM; at hGLP1R (setting [3]), 5000 pM; on hGIPR (setting [4]) it was 300 pM; on hGIPR (setting [5]), 7100 pM. Also, the solubility at 2 h in data set [1] came out at 4000 µg/mL.
Regarding `CC[C@H](C)[C@H](NC(=O)[C@H](CC(C)C)NC(=O)[C@H](Cc1c[nH]cn1)NC(=O)[C@H](CCCNC(=N)N)NC(=O)[C@@H](NC(=O)[C@H](Cc1ccccc1)NC(=O)[C@H](C)NC(=O)C(C)(C)NC(=O)[C@H](CCC(N)=O)NC(=O)[C@H](C)NC(=O)[C@H](CCC(N)=O)NC(=O)[C@H](CCC(N)=O)NC(=O)[C@H](CCC(=O)O)NC(=O)[C@H](CC(C)C)NC(=O)C(C)(C)NC(=O)[C@@H](NC(=O)[C@H](CO)NC(=O)[C@H](Cc1ccc(O)cc1)NC(=O)[C@H](CC(=O)O)NC(=O)[C@H](CO)NC(=O)[C@@H](NC(=O)[C@H](Cc1ccccc1)NC(=O)[C@@H](NC(=O)CNC(=O)[C@H](CCC(=O)O)NC(=O)C(C)(C)NC(=O)[C@@H](N)Cc1ccc(O)cc1)[C@@H](C)O)[C@@H](C)O)[C@@H](C)CC)C(C)C)C(=O)N[C@@H](CC(N)=O)C(=O)N[C@@H](CCCCNC(=O)CC[C@H](NC(=O)CC[C@H](NC(=O)CC[C@H](NC(=O)CC[C@H](NC(=O)CC[C@H](NC(=O)CCCCCCCCCCCCCCCCC(=O)O)C(=O)O)C(=O)O)C(=O)O)C(=O)O)C(=O)O)C(=O)NC(C)(C)C(=O)N[C@H](C(=O)N[C@@H](CCCNC(=N)N)C(=O)N[C@@H](CCC(N)=O)C(=O)N[C@@H](CCCNC(=N)N)C(=O)N[C@@H](Cc1ccc(O)cc1)C(N)=O)[C@@H](C)O` [Compound 42, Y-Aib-E-G-T-F-T-S-D-Y-S-I-Aib-L-E-Q-Q-A-Q-Aib-A-F-V-R-H-L-I-N-K(1,3)-Aib-T-R-Q-R-Y-NH2.C18DA-gGlu-gGlu-gGlu-gGlu-gGlu(1,2)], the figures for the EC50 on hGLP1R (setting [2]), on hGLP1R (setting [3]) and on hGIPR (setting [4]) were 900 pM, 14500 pM and 200 pM, respectively. The solubility at 2 h in data set [1] was 4300 µg/mL.
Take `CC[C@H](C)[C@H](NC(=O)[C@H](CC(C)C)NC(=O)[C@H](Cc1c[nH]cn1)NC(=O)[C@H](CCCNC(=N)N)NC(=O)[C@@H](NC(=O)[C@H](Cc1ccccc1)NC(=O)[C@H](C)NC(=O)C(C)(C)NC(=O)[C@H](CCC(N)=O)NC(=O)[C@H](C)NC(=O)[C@H](CCC(N)=O)NC(=O)[C@H](CCCCN)NC(=O)[C@H](CCC(=O)O)NC(=O)[C@H](CC(C)C)NC(=O)C(C)(C)NC(=O)[C@@H](NC(=O)[C@H](CO)NC(=O)[C@H](Cc1ccc(O)cc1)NC(=O)[C@H](CC(=O)O)NC(=O)[C@H](CO)NC(=O)[C@@H](NC(=O)[C@H](Cc1ccccc1)NC(=O)[C@@H](NC(=O)CNC(=O)[C@H](CCC(=O)O)NC(=O)C(C)(C)NC(=O)[C@@H](N)Cc1ccc(O)cc1)[C@@H](C)O)[C@@H](C)O)[C@@H](C)CC)C(C)C)C(=O)N[C@@H](CC(N)=O)C(=O)N[C@@H](CCCCNC(=O)[C@@H](N)CCCCNC(=O)CC[C@H](NC(=O)CC[C@H](NC(=O)CC[C@H](NC(=O)CC[C@H](NC(=O)CC[C@H](NC(=O)CC[C@H](NC(=O)CCCCCCCCCCCCCCCCC(=O)O)C(=O)O)C(=O)O)C(=O)O)C(=O)O)C(=O)O)C(=O)O)C(=O)NC(C)(C)C(=O)N[C@H](C(=O)N[C@@H](CCCNC(=N)N)C(=O)N[C@@H](CCC(N)=O)C(=O)N(C)[C@@H](CCCNC(=N)N)C(=O)N[C@@H](Cc1ccc(O)cc1)C(N)=O)[C@@H](C)O` [Compound 43, Y-Aib-E-G-T-F-T-S-D-Y-S-I-Aib-L-E-K-Q-A-Q-Aib-A-F-V-R-H-L-I-N-K(1,3)-Aib-T-R-Q-NMeR-Y-NH2.C18DA-gGlu-gGlu-gGlu-gGlu-gGlu-gGlu-eLys(1,2)]: the EC50 was 600 pM on hGLP1R (setting [2]), 3000 pM at hGLP1R (setting [3]), 100 pM on hGIPR (setting [4]) and 2800 pM at hGIPR (setting [5]). Further, in data set [1], the solubility at 2 h turned out to be 4300 µg/mL.
